Reference: patent US20250108036A1, “COMPOSITIONS FOR REMOVING SENESCENT CELLS AND USES THEREOF” (LIFECEUTIX CO., LTD., priority 2021, published 2025)

Assays:
[1] = chlorhexidine gluconate-induced peritoneal fibrosis in mice (Example 6-2); type: in vivo, C57BL6J mice; settings: 0.1% CHG 10 ml/kg i.p. every 2 days for 20 days; LX-112 70 mg/kg i.p. daily from day 9
Experimental: After 8-week-old male C57BL6J mice (purchased from KRIBB Laboratory Animal Resource Center) were adapted to the experimental environment for 1 week, the mice were randomized into an experimental group and a control group. To induce peritoneal fibrosis, 0.1% chlorhexidine gluconate (CHG, purchased from Sigma) was dissolved in 15% ethanol phosphate buffer solution and administered intraperitoneally at a concentration of 10 ml/kg every 2 days for 20 days. From day 9, LX-112 was mixed with 0.5% CMC-Na solution (purchased from Sigma) and administered intraperitoneally at a concentration of 70 mg/kg every day. The control group (−) was administered only the solution in the same volume. On the 20th day, paraffin sections of peritoneal tissue prepared by fixation in 4% paraformaldehyde solution were stained with H/E (Hematoxylin/Eosin) and trichrome, and the thickness of the peritoneal mesothelial cell layer was measured under a light microscope.

HMGB1 = HMGB1 ELISA in culture medium of senescent foreskin cells (Example 10, Table 62); type: cell-based, human
Experimental: After 6 hours, the amounts of HMGB1 and HMGN1 secreted into the cell culture medium were measured using an enzyme-linked immunosorbent assay (ELISA Kit, purchased from AssayGenie).

[2] = system: foreskin cells in which aging was induced by doxorubicin; assay: cell viability of senescent foreskin cells with caspase inhibitor QVD-Oph (Example 10, Table 61); type: cell-based, human; settings: ABT-263 1 μM; for Survial (%): doxorubicin-senescent foreskin cells, 3 days
HMGN1 [3] = assay: HMGN1 ELISA in culture medium of foreskin cells (Examples 10, 11; Tables 62, 63, 64); type: cell-based, human; settings: for HMGN1: 30 μM test compound, doxorubicin-treated foreskin cells, DMSO = 100
[4] = system: foreskin cells in which senescence was induced by doxorubicin; assay: CellTiter-Glo cell viability of doxorubicin-induced senescent foreskin cells (Examples 1-2, 10, 11, 13; Tables 4, 63, 65); type: cell-based, human; settings: doxorubicin-induced senescent foreskin cells, CellTiter-Glo, 0 μM = 100
Experimental: (§1) After 3 days, cell viability was measured using CellTiter-Glo Luminescent Cell Viability Assay (Promega) or light microscopy.

A549 = assay: CellTiter-Glo cell viability of senescent A549 cancer cells (Example 12, Table 67); type: cell-based, human; settings: doxorubicin-induced senescent A549 cancer cells, CellTiter-Glo
HMGN1 [5] = assay: HMGN1 ELISA in culture medium of A549 cancer cells (Example 12, Table 66); type: cell-based, human; settings: doxorubicin-induced senescent A549 cells, test compound 30 μM, ELISA, DMSO = 100
p16, MMP3, IL6 [6] = assay: p16, MMP3, IL6 mRNA qRT-PCR in groin fat of obese mice given senescent cells killed by test compounds (Example 16, Table 72); type: in vivo, C57BL6J mice; settings: obese mice administered senescent cells whose death was induced by the test compound
Text: To obtain preadipocytes, groin fat tissue was collected from an 8-week-old female C57BL6J mouse (purchased from KRIBB Laboratory Animal Resource Center). The fat tissue was cut into small pieces and treated with collagenase to decompose the fat tissue, then centrifuged to collect the stromal vascular fraction (SVF) containing preadipocytes. It was washed with a washing medium (HBSS, purchased from GenDEPOT; 3.5% Albumin Fraction V, purchased from GenDEPOT; 100 U/ml Penicillin & Streptomycin, purchased from Invitrogen), mixed again, and extracted by filtering through a 100 μm nylon mesh. The isolated preadipocytes were cultured in the designated medium (DMEM, purchased from GenDEPOT; 20% FBS, purchased from GenDEPOT; 100 U/ml Penicillin & Streptomycin, purchased from Invitrogen). In the same manner as Example 1, cells were treated with doxorubicin at a concentration of 250 nM for 24 hours and cultured for an additional 21 days to induce cell senescence. Cells were treated with doxorubicin at a concentration of 250 nM for 24 hours and cultured for an additional 21 days to induce cell senescence. By treating the test compounds in the same manner as in Example 13, it was confirmed using an optical microscope that the death of most senescent cells was induced. The killed preadipocytes were washed using PBS (purchased from Welgene) and then mixed with PBS at a concentration of 5×10^5 cells/200 μl. It was administered subcutaneously to 8-week-old female C57BL6J mice (purchased from KRIBB Laboratory Animal Resource Center). At 7 and 10 days after administration of the killed senescent cells, 2 million senescent preadipocytes were mixed in 200 μl of PBS and administered into the abdominal cavity of mice. After administration of killed senescent cells, obesity was induced in mice with a high-fat diet (DIO) for 8 weeks in the same manner as in Example 9-1. Afterwards, the mouse was sacrificed in the same manner as in Example 7-2, total RNA was extracted from the groin fat tissue, and qRT-PCR was performed and analyzed using the synthesized cDNA. […] The mRNA amount of p16, MMP3, and IL6 without administration of senescent cells whose death was induced by the test compounds was calculated as 100%, and the amount of p16, MMP3, and IL6 after administration of the senescent cells whose death was induced by the test compounds was compared with them. Furthermore, an open field test was performed to analyze aging-related frailty in mice using the same method as Example 7-7. […] The amount of activity evaluation without administration of senescent cells whose death was induced by the test compounds was calculated as 100% and compared it with the amount of activity evaluation after administration of senescent cells whose death was induced by the test compounds. […]

[7] = open field test in naturally aged mice treated with test compounds (Example 15, Table 71); type: in vivo, C57BL6J mice; settings: naturally aged mice treated with test compound
p16, MMP3, IL6 [8] = assay: p16, MMP3, IL6 mRNA qRT-PCR in liver of naturally aged mice treated with test compounds (Example 15, Table 71); type: in vivo, C57BL6J mice; settings: liver tissue of naturally aged mice treated with test compound
senescent foreskin cells = assay: survival of senescent foreskin cells treated with medium supernatant (secreted fluid) of compound-killed cells (Example 13, Tables 68, 69); type: cell-based, human; settings: culture medium supernatant from dying senescent cells treated with compound at 30 μM, 90 μM or 270 μM; senescent foreskin cells
Experimental: as §1
During this additional culture, by checking with an optical microscope, etc., the medium supernatants containing secreted fluid from normally proliferating and senescent cells in which cell death was induced were obtained. The obtained medium supernatant was replaced with the medium of normally proliferating and senescent cells, respectively, and cell survival rate was measured after 3 days.

[9] = open field test in obese mice given senescent cells killed by test compounds (Example 16, Table 72); type: in vivo, C57BL6J mice; settings: obese mice administered senescent cells whose death was induced by the test compound
Text: To obtain preadipocytes, groin fat tissue was collected from an 8-week-old female C57BL6J mouse (purchased from KRIBB Laboratory Animal Resource Center). The fat tissue was cut into small pieces and treated with collagenase to decompose the fat tissue, then centrifuged to collect the stromal vascular fraction (SVF) containing preadipocytes. It was washed with a washing medium (HBSS, purchased from GenDEPOT; 3.5% Albumin Fraction V, purchased from GenDEPOT; 100 U/ml Penicillin & Streptomycin, purchased from Invitrogen), mixed again, and extracted by filtering through a 100 μm nylon mesh. The isolated preadipocytes were cultured in the designated medium (DMEM, purchased from GenDEPOT; 20% FBS, purchased from GenDEPOT; 100 U/ml Penicillin & Streptomycin, purchased from Invitrogen). In the same manner as Example 1, cells were treated with doxorubicin at a concentration of 250 nM for 24 hours and cultured for an additional 21 days to induce cell senescence. Cells were treated with doxorubicin at a concentration of 250 nM for 24 hours and cultured for an additional 21 days to induce cell senescence. By treating the test compounds in the same manner as in Example 13, it was confirmed using an optical microscope that the death of most senescent cells was induced. The killed preadipocytes were washed using PBS (purchased from Welgene) and then mixed with PBS at a concentration of 5×10^5 cells/200 μl. It was administered subcutaneously to 8-week-old female C57BL6J mice (purchased from KRIBB Laboratory Animal Resource Center). At 7 and 10 days after administration of the killed senescent cells, 2 million senescent preadipocytes were mixed in 200 μl of PBS and administered into the abdominal cavity of mice. After administration of killed senescent cells, obesity was induced in mice with a high-fat diet (DIO) for 8 weeks in the same manner as in Example 9-1. Afterwards, the mouse was sacrificed in the same manner as in Example 7-2, total RNA was extracted from the groin fat tissue, and qRT-PCR was performed and analyzed using the synthesized cDNA. […] The mRNA amount of p16, MMP3, and IL6 without administration of senescent cells whose death was induced by the test compounds was calculated as 100%, and the amount of p16, MMP3, and IL6 after administration of the senescent cells whose death was induced by the test compounds was compared with them. Furthermore, an open field test was performed to analyze aging-related frailty in mice using the same method as Example 7-7. […] The amount of activity evaluation without administration of senescent cells whose death was induced by the test compounds was calculated as 100% and compared it with the amount of activity evaluation after administration of senescent cells whose death was induced by the test compounds.

Splenocyte = settings: cited from earlier work
[10] = 1 μM, culture medium after 6 hours, senescent foreskin cells
[11] = ABT-263 1 μM or LX-112 10 μM, 6 hours

N=C(NCCCCCCNC(=N)NC(=N)Nc1ccc(Cl)cc1)NC(=N)Nc1ccc(Cl)cc1.O=C(O)[C@H](O)[C@@H](O)[C@H](O)[C@H](O)CO.O=C(O)[C@H](O)[C@@H](O)[C@H](O)[C@H](O)CO [CHG, chlorhexidine gluconate, reference compound]
Submesothelial Thickness (μm) [1]: 69.1 (±6.4) μm

CC1(C)CCC(c2ccc(Cl)cc2)=C(CN2CCN(c3ccc(C(=O)NS(=O)(=O)c4ccc(N[C@H](CCN5CCOCC5)CSc5ccccc5)c(S(=O)(=O)C(F)(F)F)c4)cc3)CC2)C1 [ABT-263, reference compound]
HMGB1 (pg/ml) (HMGB1; [10]): 462.7 (±21.6) pg/ml | HMGB1 secreted in the culture medium from dying senescent cells (HMGB1; [11]): little change | Survial (%) ([2]; QVD-Oph 20 μM applied 4 hours before): 98.4 (±2.6) % | Survial (%) ([2]; without QVD-Oph): 23.8 (±5.5) % | inhibition of the death of senescent cells by the caspase inhibitor ([2]; QVD-Oph 20 μM, LX-112 10 μM): completely inhibited | HMGN1 (pg/ml) (HMGN1 [3]; [10]): 105.3 (±13.5) pg/ml | HMGN1 secreted in the culture medium from dying senescent cells (HMGN1 [3]; [11]): no significant change

S=C(N/N=C1\CCCc2cccnc21)N1CCN(c2ccccn2)CC1 [LX-801]
Survival (%) ([4]; 1.1 μM test compound): 50.5% | Survival (%) ([4]; 10 μM test compound): 28.2% | Survival (%) ([4]; […] test compound): 48.9% | Survival (%) (A549; 1.1 μM test compound): 78.1% | Survival (%) (A549; 10 μM test compound): 12.7% | HMGN1 (amount of HMGN1 secreted in the cell culture) (HMGN1 [5]): 329 | IL6 mRNA (%) (p16, MMP3, IL6 [6]): 79.4 (±4.6) % | MMP3 mRNA (%) (p16, MMP3, IL6 [6]): 81.7 (±2.9) % | p16 mRNA (%) (p16, MMP3, IL6 [6]): 79.8 (±3.4) % | HMGN1 (HMGN1 [3]): 265 | Open Field Test Time in Center (%) [7]: 241.8 (±17.9) % | IL6 mRNA (%) (p16, MMP3, IL6 [8]): 71.1 (±1.8) % | MMP3 mRNA (%) (p16, MMP3, IL6 [8]): 76.5 (±4.2) % | p16 mRNA (%) (p16, MMP3, IL6 [8]): 69.4 (±6.9) % | Survival (senescent foreskin cells): 52.7 | Open Field Test Time in Center (%) [9]: 216.8 (±12.8) %

CC(=O)OC[C@H]1O[C@@H]([S-])[C@H](OC(C)=O)[C@@H](OC(C)=O)[C@@H]1OC(C)=O.CCP(CC)CC.[Au+] [LX-201, Auranofin, reference compound]
Survival (%) ([4]; 1.1 μM test compound): 98.2% | Survival (%) ([4]; […] test compound): 3% | Survival (%) (A549; 1.1 μM test compound): 72.5% | HMGN1 (amount of HMGN1 secreted in the cell culture) (HMGN1 [5]): 337 | IL6 mRNA (%) (p16, MMP3, IL6 [6]): 76.8 (±6.4) % | MMP3 mRNA (%) (p16, MMP3, IL6 [6]): 67.1 (±9.2) % | p16 mRNA (%) (p16, MMP3, IL6 [6]): 79.5 (±7.6) % | HMGN1 (HMGN1 [3]): 291 | Open Field Test Time in Center (%) [7]: 226.4 (±27.6) % | IL6 mRNA (%) (p16, MMP3, IL6 [8]): 65.7 (±5.1) % | MMP3 mRNA (%) (p16, MMP3, IL6 [8]): 77 (±9.6) % | p16 mRNA (%) (p16, MMP3, IL6 [8]): 85 (±8.2) % | Survival (senescent foreskin cells): 62.9 | Open Field Test Time in Center (%) [9]: 176 (±22.6) %

CC(O)[C@@H]1NC(=O)COCCOCCNC(=O)[C@H](C(C)O)NC(=O)N[C@@H](C(C)O)C(=O)NNC1=O (some centres unmarked) [Example 80]
Splenocyte proliferation recovery (Splenocyte): Splenocyte proliferation recovery 91%

Decyltriphenylphosphonium [LX-1202]
Survival (%) ([4]; 1.1 μM test compound): 22.7% | Survival (%) ([4]; […] test compound): 3.1% | Survival (%) (A549; 1.1 μM test compound): 53.4% | HMGN1 (amount of HMGN1 secreted in the cell culture) (HMGN1 [5]): 301 | IL6 mRNA (%) (p16, MMP3, IL6 [6]): 62.8 (±8.9) % | MMP3 mRNA (%) (p16, MMP3, IL6 [6]): 70.7 (±7.5) % | p16 mRNA (%) (p16, MMP3, IL6 [6]): 67.2 (±12.1) % | HMGN1 (HMGN1 [3]): 289 | Open Field Test Time in Center (%) [7]: 231 (±23) % | IL6 mRNA (%) (p16, MMP3, IL6 [8]): 74.1 (±6.1) % | MMP3 mRNA (%) (p16, MMP3, IL6 [8]): 40.2 (±22.7) % | p16 mRNA (%) (p16, MMP3, IL6 [8]): 74.2 (±10.4) % | Survival (senescent foreskin cells): 55.1 | Open Field Test Time in Center (%) [9]: 175.9 (±21.5) %
